Experimental data: PubChem BioAssay AID248 (DTP/NCI, 2004)
Several values for one entry are separate records, joined by “and”; a condition that tells them apart may be missing. Identical values can stand only once. Inconclusive results and toxic doses are left out. Cut-off read from the data, not from the text of the source: active = T/C of 150% or more; inactive = T/C below 125%.

Test system: L1210 leukemia ip in BDF1 mice, survival T/C
Experiment: NCI In Vivo Anticancer Drug Screen. Data for tumor model L1210 Leukemia (intraperitoneal) in B6D2F1 (BDF1) mice
Settings: endpoint: mean survival time, higher = longer survival
Outline: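 In this screen, tumor-bearing mice given compound are compared to those given vehicle, and their survival values are reported as a treated-to-control quotient.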

[1] = dose: 100.0 mg/kg/injection, schedule: Q01DX001 (ip), vehicle: saline
[2] = dose: 200.0 mg/kg/injection, schedule: Q01DX001 (ip), vehicle: saline
[3] = dose: 400.0 mg/kg/injection, schedule: Q01DX001 (ip), vehicle: saline
[4] = dose: 100.0 mg/kg/injection, schedule: Q01DX009 (ip), vehicle: Klucel (hydroxypropylcellulose) (HPC)
[5] = dose: 100.0 mg/kg/injection, schedule: Q04DX003 (ip), vehicle: Klucel (hydroxypropylcellulose) (HPC)
[6] = dose: 200.0 mg/kg/injection, schedule: Q01DX009 (ip), vehicle: Klucel (hydroxypropylcellulose) (HPC)
[7] = dose: 200.0 mg/kg/injection, schedule: Q04DX003 (ip), vehicle: Klucel (hydroxypropylcellulose) (HPC)
[8] = dose: 400.0 mg/kg/injection, schedule: Q01DX009 (ip), vehicle: Klucel (hydroxypropylcellulose) (HPC)
[9] = dose: 400.0 mg/kg/injection, schedule: Q04DX003 (ip), vehicle: Klucel (hydroxypropylcellulose) (HPC)
[10] = dose: 50.0 mg/kg/injection, schedule: Q01DX009 (ip), vehicle: saline
[11] = dose: 100.0 mg/kg/injection, schedule: Q01DX009 (ip), vehicle: saline
[12] = dose: 200.0 mg/kg/injection, schedule: Q01DX009 (ip), vehicle: saline
[13] = dose: 100.0 mg/kg/injection, schedule: Q01DX009 (ip), vehicle: saline with Tween-80
[14] = dose: 200.0 mg/kg/injection, schedule: Q01DX009 (ip), vehicle: saline with Tween-80
[15] = dose: 400.0 mg/kg/injection, schedule: Q01DX009 (ip), vehicle: saline with Tween-80
[16] = dose: 100.0 mg/kg/injection, schedule: Q04DX002 (ip), vehicle: saline
[17] = dose: 200.0 mg/kg/injection, schedule: Q04DX002 (ip), vehicle: saline
[18] = dose: 400.0 mg/kg/injection, schedule: Q04DX002 (ip), vehicle: saline
[19] = dose: 25.0 mg/kg/injection, schedule: Q01DX009 (ip), vehicle: saline
[20] = dose: 25.0 mg/kg/injection, schedule: Q01DX009 (ip), vehicle: saline with Tween-80
[21] = dose: 50.0 mg/kg/injection, schedule: Q01DX009 (ip), vehicle: saline with Tween-80

Measured: T/C

CS(=O)(=O)OC1C2(c3ccccc3)C=CCC1(c1ccccc1)C(c1ccccc1)=C2c1ccccc1 (stereo not drawn)
inactive: dose: 100.0 mg/kg/injection, schedule: Q01DX001 (ip), vehicle: Klucel (hydroxypropylcellulose) (HPC) 98 % of control | dose: 200.0 mg/kg/injection, schedule: Q01DX001 (ip), vehicle: Klucel (hydroxypropylcellulose) (HPC) 101 % of control | dose: 400.0 mg/kg/injection, schedule: Q01DX001 (ip), vehicle: Klucel (hydroxypropylcellulose) (HPC) 98 % of control

CCC(=O)NC1=CC(=O)c2ccccc2C1=O
inactive: dose: 75.0 mg/kg/injection, schedule: Q01DX001 (ip), vehicle: carboxymethylcellulose (CMC) 98 % of control | dose: 150.0 mg/kg/injection, schedule: Q01DX001 (ip), vehicle: carboxymethylcellulose (CMC) 97 % of control | dose: 300.0 mg/kg/injection, schedule: Q01DX001 (ip), vehicle: carboxymethylcellulose (CMC) 95 % of control

O=C(O)c1c2ccc(Cl)cc2nc2[nH]c(=O)[nH]c(=O)c12
inactive: dose: 100.0 mg/kg/injection, schedule: Q04DX002 (ip), vehicle: Klucel (hydroxypropylcellulose) (HPC) 108 % of control | dose: 200.0 mg/kg/injection, schedule: Q04DX002 (ip), vehicle: Klucel (hydroxypropylcellulose) (HPC) 120 % of control | dose: 400.0 mg/kg/injection, schedule: Q04DX002 (ip), vehicle: Klucel (hydroxypropylcellulose) (HPC) 113 % of control

CCCNC(=O)Nc1ccc(Cl)c(Cl)c1
inactive: [1] 100 % of control | [2] 93 % of control | [3] 92 % of control

O=C(O)c1ccccc1-c1c2ccc(=O)c(O)c-2oc2c(O)c(O)ccc12
inactive: dose: 10.0 mg/kg/injection, schedule: Q04DX003 (ip), vehicle: other 99 % of control | dose: 20.0 mg/kg/injection, schedule: Q04DX003 (ip), vehicle: other 94 % of control | dose: 40.0 mg/kg/injection, schedule: Q04DX003 (ip), vehicle: other 98 % of control | dose: 50.0 mg/kg/injection, schedule: Q04DX003 (ip), vehicle: other 112 % of control | dose: 80.0 mg/kg/injection, schedule: Q04DX003 (ip), vehicle: other 89 % of control | dose: 100.0 mg/kg/injection, schedule: Q04DX003 (ip), vehicle: other 104 % of control | dose: 200.0 mg/kg/injection, schedule: Q04DX003 (ip), vehicle: other 124 % of control

CCCCN1CCSC1=S
inactive: dose: 100.0 mg/kg/injection, schedule: Q01DX009 (ip), vehicle: alcohol 93 % of control | dose: 100.0 mg/kg/injection, schedule: Q04DX002 (ip), vehicle: alcohol 100 % of control | dose: 200.0 mg/kg/injection, schedule: Q01DX009 (ip), vehicle: alcohol 96 % of control | dose: 200.0 mg/kg/injection, schedule: Q04DX002 (ip), vehicle: alcohol 87 % of control | dose: 400.0 mg/kg/injection, schedule: Q01DX009 (ip), vehicle: alcohol 86 % of control | dose: 400.0 mg/kg/injection, schedule: Q04DX002 (ip), vehicle: alcohol 103 % of control

O=C(CCCCl)NCc1ccccc1[N+](=O)[O-]
inactive: [4] 96 % of control | [5] 101 % of control | [6] 90 % of control | [7] 93 % of control | [8] 91 % of control | [9] 97 % of control

CC1OCC(C)(CO)CO1 (stereo not drawn)
inactive: [10] 102 % of control | [11] 101 % of control | dose: 100.0 mg/kg/injection, schedule: Q04DX003 (ip), vehicle: acetone 106 % of control | [12] 98 % of control | dose: 200.0 mg/kg/injection, schedule: Q04DX003 (ip), vehicle: acetone 122 % of control | dose: 400.0 mg/kg/injection, schedule: Q04DX003 (ip), vehicle: acetone 111 % of control

F[Si](C1CCCCC1)(C1CCCCC1)C1CCCCC1
inactive: [13] 92 % of control | [14] 91 % of control | [15] 89 % of control

O=C(C#Cc1ccccc1)/C=C/c1ccccc1
inactive: [5] 88 % of control | [7] 98 % of control

O=C(Cc1ccccc1)Nc1ccc(Cl)cc1C(=O)c1ccccc1
inactive: [16] 101 % of control | [17] 93 % of control | [18] 90 % of control

CC(C)=CCC/C(C)=C/CN1C(=O)CN(C)C1=O
inactive: [10] 98 % of control | [1] 100 % of control | [11] 101 % of control | [2] 103 % of control | [12] 98 % of control | [3] 100 % of control

CCCCCCOc1ccc(C=Nc2ccc(C)cc2)cc1
inactive: [5] 97 % of control | [7] 103 % of control | [9] 101 % of control

CCN(CC)CC(O)c1ccccc1 (stereo not drawn)
inactive: [19] 100 % of control | dose: 25.0 mg/kg/injection, schedule: Q04DX003 (ip), vehicle: saline 98 % of control | [10] 98 % of control | dose: 50.0 mg/kg/injection, schedule: Q04DX003 (ip), vehicle: saline 93 % of control | dose: 100.0 mg/kg/injection, schedule: Q04DX003 (ip), vehicle: saline 100 % of control

CC=NC(C)(C)C
inactive: dose: 12.5 mg/kg/injection, schedule: Q01DX009 (ip), vehicle: saline with Tween-80 91 % of control | [20] 94 % of control | [21] 95 % of control and 91 % of control

CCOc1ccc(NC(=S)NC(=O)c2ccccc2F)cc1
inactive: [20] 92 % of control | [21] 104 % of control | [13] 87 % of control | [14] 87 % of control

O=CC(=O)c1ccccc1
inactive: [20] 100 % of control | [19] 101 % of control | [21] 105 % of control | [10] 104 % of control | dose: 75.0 mg/kg/injection, schedule: Q01DX009 (ip), vehicle: saline with Tween-80 98 % of control | [13] 107 % of control

CCO/C=C/C(=O)NC(=O)OCC
inactive: [13] 95 % of control | dose: 100.0 mg/kg/injection, schedule: Q04DX003 (ip), vehicle: saline with Tween-80 97 % of control | [14] 91 % of control | dose: 200.0 mg/kg/injection, schedule: Q04DX003 (ip), vehicle: saline with Tween-80 100 % of control | [15] 101 % of control | dose: 400.0 mg/kg/injection, schedule: Q04DX003 (ip), vehicle: saline with Tween-80 94 % of control

C/C(N=Nc1ccccc1)=N\Nc1cccc(C(F)(F)F)c1
inactive: dose: 50.0 mg/kg/injection, schedule: Q01DX009 (ip), vehicle: Klucel (hydroxypropylcellulose) (HPC) 107 % of control | [4] 102 % of control | [6] 110 % of control | [8] 102 % of control

NC(=O)C1CCNCC1
inactive: [16] 108 % of control | [17] 102 % of control | [18] 115 % of control

Cc1nc(SCc2ccc(Cl)cc2)[nH]c(=O)c1CCO
inactive: [13] 92 % of control | [14] 92 % of control | [15] 92 % of control
